Series [1] concerns myocardial infarction. In words: Isoproterenol myocardial infarction rats, heart weight / body weight. It is filed as in vivo, Wistar male rats. The note with it: rt-PA 5 mg/kg femoral vein. The method, then: (§1) 60 Wistar male rats (SPF grade), weighing 220-260 g, were randomly divided into a myocardial infarction modeling group and a control group according to a random number table, with 12 rats in the control group and 48 rats in the model group. The rats were conventionally fed in separate cages with 4 rats per cage. After a normal electrocardiogram was traced, the rats in the myocardial infarction modeling group were subcutaneously injected with 150 mg·kg^−1·d^−1 of isoproterenol (ISO) in a volume of 0.2 mL/100 g every other 24 h for 2 consecutive days. The rats in the control group were subcutaneously injected with a same amount (0.2 mL/100 g) of normal saline according the same method for 2 consecutive days. The electrocardiogram was monitored 24 h after the second subcutaneous injection of the isoproterenol. […] The ST segment elevation of greater than 0.2 mV in lead II or the formation of Q wave became the standard for myocardial infarction.
A total of 36 modeled rats were selected from the modeling group and randomly divided into a model group, a thrombolysis group and a thrombolytic drug+icaritin group according to the random number table. […]

Series [2] relates to hemorrhagic transformation induced by thrombolytic drug. In words: Rat middle cerebral artery autologous thrombosis with rt-PA thrombolysis, cerebral hemorrhage volume. The format is in vivo. The method, then:
A rat model of middle cerebral artery autologous thrombosis was prepared according to the following method: rats were anesthetized by intraperitoneal injection of 10% […] at 350 mg/kg body weight and fixed on an operating table in a supine position, skin of the rats was routinely disinfected according to aseptic operation procedures, and draping was performed. An incision about 3.0-cm-long was taken from the skin in the middle of the neck, the muscle and the subcutaneous tissue were bluntly separated, the right bilateral common carotid arteries, external carotid arteries, and internal carotid arteries were separated to avoid damage to the vagus nerve, the internal carotid arteries were separated to the skull base, and the external carotid arteries were ligated at the bifurcation of the bilateral common carotid arteries. 0.1 ml of arterial blood from the femoral artery of the rat was taken using a 1-ml syringe, 4 U of thrombin was added, the materials were uniformly mixed and stood for 8-10 min, when the blood was coagulated, and the coagulated blood was injected into a 24 G venous indwelling needle to prepare a thrombus about 1-cm-long followed by a syringe containing 1-2 ml of normal saline. […]
Another 4 healthy rats were taken, sacrificed by excessive anesthesia, and subjected to cardiac perfusion. […] cerebral hemisphere tissues were taken, 0, 0.5, 1, 2, 4, 8, 16, 32, and 50 μL of arterial blood of male SD rats was successively added to each hemisphere tissue, PBS at a pH of 7.4 was added to a total volume of 3 ml, the tissue was homogenized for 30 s and ultrasonically lysed, and centrifugation was performed at 13,000 r/min and 4° C. for 30 min 0.8 mL of Drabkin's reagent was mixed with 0.2 mL of a supernatant of each sample, an obtained mixture was placed in a dark place at a room temperature for 10 min, and an absorbance at a wavelength of 540 nm (absorbance of sample not containing blood was set to 0) was measured. The absorbance was set as a Y-axis and the blood volume in each sample was set as an X-axis to draw a standard curve. […]

The test system of series [3] is myocardial infarction. The experiment in a line: Isoproterenol myocardial infarction rats, electrocardiogram. The note with it: rt-PA 5 mg/kg femoral vein, compared with the model group. It is filed as in vivo, Wistar male rats. The protocol:
as §1, with “infarction. […]” for “infarction.”
The rats were anesthetized by inhalation of ether. […] The electrocardiogram of the rat was monitored using the limb leads according to right upper limb-red, left upper limb-yellow, left lower limb-green, and right lower limb-black, an electrocardiograph was turned on at a paper speed of 50 mm/s and a voltage of 1 mv, and the animals were returned to the cages after the electrocardiogram.

A further series relates to cerebral infarction. In words: Same rt-PA thrombolysis model, cerebral infarction volume (rate). It is filed as in vivo, rats. The note with it: rt-PA 5 mg/kg alone, compared with the model group. The method, then: An incision about 3.0-cm-long was taken from the skin in the middle of the neck, the muscle and the subcutaneous tissue were bluntly separated, the right bilateral common carotid arteries, external carotid arteries, and internal carotid arteries were separated to avoid damage to the vagus nerve, the internal carotid arteries were separated to the skull base, and the external carotid arteries were ligated at the bifurcation of the bilateral common carotid arteries. 0.1 ml of arterial blood from the femoral artery of the rat was taken using a 1-ml syringe, 4 U of thrombin was added, the materials were uniformly mixed and stood for 8-10 min, when the blood was coagulated, and the coagulated blood was injected into a 24 G venous indwelling needle to prepare a thrombus about 1-cm-long followed by a syringe containing 1-2 ml of normal saline. […] Infarct volume=non-ischemic side hemisphere volume-ischemic side hemisphere non-infarct area volume, and an infarct volume ratio was expressed as the percentage (%) of the infarct volume to the non-ischemic side hemisphere volume.

Substance “rt-PA: alteplase (rt-PA), thrombolytic drug, 5 mg/kg via the femoral vein” displayed a Whole heart weight with myocardial infarction [1] of 702.3 ± 10.8 mg. Besides, in the series with myocardial infarction [1] (model group 4.0, control 2.6), the Heart weight/body weight is 2.8^$ $ mg/g. The Cerebral hemorrhage volume is given as 6.43 ± 0.89 in series [2] (rt-PA 5 mg/kg femoral vein 3 h after modeling, 3 h after thrombolysis); 9.78 ± 1.01 in series [2] (rt-PA 5 mg/kg femoral vein, 6 h after thrombolysis); 15.32 ± 2.01 in series [2] (rt-PA 5 mg/kg femoral vein, 24 h after thrombolysis). For the same substance, in the series on myocardial infarction [3], the “Pathological Q waves in electrocardiogram” value is given as “disappeared”. Moreover, in the series on cerebral infarction, the “Pale white area of the infarcted area” value is “significantly decreased”.
